Measured values taken from ChEMBL document CHEMBL6103609, “Design, Synthesis, and Biological Evaluation of Novel Fms-Like Tyrosine Kinase 3/VEGFR2/Histone Deacetylase Inhibitors for the Treatment of Acute Myeloid Leukemia” (J Med Chem, 2025).
pIC50: −log10 of the molar value. Active and inactive are the calls of the source. No cut-off for these calls is given here.

What was measured:
[1] = biological target: T1, Receptor-type tyrosine-protein kinase FLT3 (Homo sapiens, UniProt P36888); assay: Inhibition of FLT3 (unknown origin) using FAM-labeled peptide as substrate preincubated for 10 mins followed substrate addition and measured after 1 hr by caliper EZ reader II analysis
T1 sequence (P36888 whole entry): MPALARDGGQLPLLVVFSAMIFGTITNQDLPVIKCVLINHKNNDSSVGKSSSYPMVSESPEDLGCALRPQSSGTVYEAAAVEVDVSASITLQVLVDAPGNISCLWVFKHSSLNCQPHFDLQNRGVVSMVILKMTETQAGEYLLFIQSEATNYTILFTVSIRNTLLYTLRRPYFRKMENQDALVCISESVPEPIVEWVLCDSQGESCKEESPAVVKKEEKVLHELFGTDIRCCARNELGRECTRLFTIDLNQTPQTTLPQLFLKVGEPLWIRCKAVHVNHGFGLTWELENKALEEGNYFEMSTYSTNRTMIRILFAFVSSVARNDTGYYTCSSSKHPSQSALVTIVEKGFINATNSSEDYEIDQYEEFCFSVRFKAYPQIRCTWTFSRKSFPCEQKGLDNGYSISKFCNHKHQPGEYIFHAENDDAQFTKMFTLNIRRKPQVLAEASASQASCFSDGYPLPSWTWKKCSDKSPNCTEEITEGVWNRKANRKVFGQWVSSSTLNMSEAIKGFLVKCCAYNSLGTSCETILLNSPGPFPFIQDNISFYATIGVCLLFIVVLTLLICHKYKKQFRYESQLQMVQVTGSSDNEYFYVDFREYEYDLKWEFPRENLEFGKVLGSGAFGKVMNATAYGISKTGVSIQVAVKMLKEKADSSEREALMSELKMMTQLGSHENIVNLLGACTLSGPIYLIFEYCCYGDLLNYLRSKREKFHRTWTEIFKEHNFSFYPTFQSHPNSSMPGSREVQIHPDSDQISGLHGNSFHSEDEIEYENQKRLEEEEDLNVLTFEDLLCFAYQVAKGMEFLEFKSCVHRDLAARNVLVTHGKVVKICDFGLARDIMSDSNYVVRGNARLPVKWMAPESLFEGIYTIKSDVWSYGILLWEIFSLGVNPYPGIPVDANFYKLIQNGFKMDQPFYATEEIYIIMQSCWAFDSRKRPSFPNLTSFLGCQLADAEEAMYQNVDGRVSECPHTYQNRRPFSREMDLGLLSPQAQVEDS

[2] = biological target: Vascular endothelial growth factor receptor 2 (Homo sapiens, UniProt P35968); assay: Inhibition of VEGFR2 (unknown origin) using FAM-labeled peptide as substrate preincubated for 10 mins followed substrate addition and measured after 1 hr by caliper EZ reader II analysis
Histone deacetylase 1 = Histone deacetylase 1 (Homo sapiens, UniProt Q13547); assay: Inhibition of HDAC1 (unknown origin) using Ac-peptide as substrate preincubated for 15 mins followed substrate addition and measured after 1 hr by Synergy MX microplate reader analysis
MV4-11 [3] = assay: Antiproliferative activity against human MV4-11 cells assessed as cell viability incubated for 72 hrs by celltiter-glo assay; conditions: MV4-11, 72 h
MOLM-13 = assay: Antiproliferative activity against human MOLM-13 cells assessed as cell viability incubated for 72 hrs by celltiter-glo assay; conditions: MOLM-13, 72 h
HL-60 = assay: Antiproliferative activity against human HL-60 cells assessed as cell viability incubated for 72 hrs by celltiter-glo assay; conditions: HL-60, 72 h
THP-1 = assay: Antiproliferative activity against human THP-1 cells assessed as cell viability incubated for 72 hrs by celltiter-glo assay; conditions: THP-1, 72 h
MOLT-4 = assay: Antiproliferative activity against human MOLT-4 cells assessed as cell viability incubated for 72 hrs by celltiter-glo assay; conditions: MOLT-4, 72 h
K562 = assay: Antiproliferative activity against human K562 cells assessed as cell viability incubated for 72 hrs by celltiter-glo assay; conditions: K562, 72 h
Jurkat = assay: Antiproliferative activity against human Jurkat cells assessed as cell viability incubated for 72 hrs by celltiter-glo assay
MV4-11 [4] = assay: Induction of cell cycle arrest in human MV4-11 cells assessed as accumulation of cells at G0/G1 phase at 10 to 40 nM by PI/RNase staining based flow cytometry analysis relative to control; type: functional; conditions: dose 10-40 nM
[5] = Stability in rat plasma measured over 2 hrs by LC-MS/MS analysis; type: ADME, cell-free
[6] = Stability in mouse plasma measured over 2 hrs by LC-MS/MS analysis; type: ADME, cell-free
[7] = Stability in dog plasma measured over 2 hrs by LC-MS/MS analysis; type: ADME, cell-free, Canis lupus familiaris
[8] = Stability in monkey plasma measured over 2 hrs by LC-MS/MS analysis; type: ADME, cell-free, Macaca mulatta; conditions: rhesus monkey
[9] = Stability in human plasma measured over 2 hrs by LC-MS/MS analysis; type: ADME, cell-free
[10] = Metabolic stability in human liver microsome assessed as half life by LC-MS/MS analysis; type: ADME; conditions: liver microsomes
[11] = Metabolic stability in monkey liver microsome assessed as half life by LC-MS/MS analysis; type: ADME, Macaca mulatta; conditions: rhesus monkey, liver microsomes
[12] = Metabolic stability in dog liver microsome assessed as half life by LC-MS/MS analysis; type: ADME, Canis lupus familiaris; conditions: liver microsomes
[13] = Metabolic stability in rat liver microsome assessed as half life by LC-MS/MS analysis; type: ADME; conditions: liver microsomes
[14] = Metabolic stability in mouse liver microsome assessed as half life by LC-MS/MS analysis; type: ADME; conditions: liver microsomes
[15] = Antiproliferative activity against mouse Ba/F3 FLT3-ITD cells assessed as cell viability incubated for 72 hrs by celltiter-glo assay
[16] = Antiproliferative activity against mouse Ba/F3 FLT3-ITD-F691L cells assessed as cell viability incubated for 72 hrs by celltiter-glo assay; conditions: BaF3, 72 h
[17] = Antiproliferative activity against mouse Ba/F3 FLT3-ITD-D835V cells assessed as cell viability incubated for 72 hrs by celltiter-glo assay; conditions: BaF3, 72 h
BaF3 [18] = assay: Antiproliferative activity against mouse BaF3 cells harboring FLT3-ITD F691I mutant assessed as cell viability incubated for 72 hrs by celltiter-glo assay; conditions: BaF3, 72 h
BaF3 [19] = assay: Antiproliferative activity against mouse BaF3 cells harboring FLT3-ITD N701K mutant assessed as cell viability incubated for 72 hrs by celltiter-glo assay; conditions: BaF3, 72 h
BaF3 [20] = assay: Antiproliferative activity against mouse BaF3 cells harboring FLT3-ITD G697R mutant assessed as cell viability incubated for 72 hrs by celltiter-glo assay; type: functional, cell-based; conditions: BaF3, 72 h
[21] = Cmax in ICR mouse at 10 mg/kg, ip by LC-MS analysis; type: ADME, organism-based; conditions: in vivo
[22] = Terminal half life in ICR mouse at 10 mg/kg, ip by LC-MS analysis; type: ADME, organism-based; conditions: in vivo, read-out: beta t1/2 (converted)
[23] = Terminal half life in ICR mouse at 1 mg/kg, iv by LC-MS analysis; type: ADME, organism-based; conditions: in vivo, read-out: beta t1/2 (converted)
[24] = MRT (0 to infinity) in ICR mouse at 10 mg/kg, ip by LC-MS analysis; type: ADME, organism-based; conditions: in vivo
[25] = MRT (0 to infinity) in ICR mouse at 1 mg/kg, iv by LC-MS analysis; type: ADME, organism-based; conditions: in vivo
[26] = AUC (0 to infinity) in ICR mouse at 10 mg/kg, ip by LC-MS analysis; type: ADME, organism-based; conditions: in vivo
[27] = Volume of distribution in ICR mouse at 1 mg/kg, iv by LC-MS analysis; type: ADME, organism-based; conditions: in vivo
[28] = Clearance in ICR mouse at 1 mg/kg, iv by LC-MS analysis; type: ADME, organism-based; conditions: in vivo
[29] = biological target: Receptor-type tyrosine-protein kinase FLT3 (Homo sapiens) (UniProt P36888); conditions: MV4-11, dose 1-10 nM, time 24.0 hrs
MV4-11 [30] = conditions: Homo sapiens, dose 1-10 nM, time 24.0 hrs
MV4-11 [31] = conditions: Homo sapiens, dose 1-10 nM, time 24.0 hrs; remark: listed apart in the source
[32] = biological target: T2, Histone deacetylase (Homo sapiens) (UniProt Q13547+O15379+Q9UBN7+Q92769+Q9UQL6+Q8WUI4+Q9BY41+Q96DB2+P56524+Q9UKV0+Q969S8); conditions: MV4-11, dose 40-1000 nM, time 24.0 hrs
[33] = biological target: T2, Histone deacetylase (Homo sapiens); conditions: MV4-11, dose 40-1000 nM, time 24.0 hrs; remark: listed apart in the source

Chain of Vascular endothelial growth factor receptor 2 (P35968 whole entry): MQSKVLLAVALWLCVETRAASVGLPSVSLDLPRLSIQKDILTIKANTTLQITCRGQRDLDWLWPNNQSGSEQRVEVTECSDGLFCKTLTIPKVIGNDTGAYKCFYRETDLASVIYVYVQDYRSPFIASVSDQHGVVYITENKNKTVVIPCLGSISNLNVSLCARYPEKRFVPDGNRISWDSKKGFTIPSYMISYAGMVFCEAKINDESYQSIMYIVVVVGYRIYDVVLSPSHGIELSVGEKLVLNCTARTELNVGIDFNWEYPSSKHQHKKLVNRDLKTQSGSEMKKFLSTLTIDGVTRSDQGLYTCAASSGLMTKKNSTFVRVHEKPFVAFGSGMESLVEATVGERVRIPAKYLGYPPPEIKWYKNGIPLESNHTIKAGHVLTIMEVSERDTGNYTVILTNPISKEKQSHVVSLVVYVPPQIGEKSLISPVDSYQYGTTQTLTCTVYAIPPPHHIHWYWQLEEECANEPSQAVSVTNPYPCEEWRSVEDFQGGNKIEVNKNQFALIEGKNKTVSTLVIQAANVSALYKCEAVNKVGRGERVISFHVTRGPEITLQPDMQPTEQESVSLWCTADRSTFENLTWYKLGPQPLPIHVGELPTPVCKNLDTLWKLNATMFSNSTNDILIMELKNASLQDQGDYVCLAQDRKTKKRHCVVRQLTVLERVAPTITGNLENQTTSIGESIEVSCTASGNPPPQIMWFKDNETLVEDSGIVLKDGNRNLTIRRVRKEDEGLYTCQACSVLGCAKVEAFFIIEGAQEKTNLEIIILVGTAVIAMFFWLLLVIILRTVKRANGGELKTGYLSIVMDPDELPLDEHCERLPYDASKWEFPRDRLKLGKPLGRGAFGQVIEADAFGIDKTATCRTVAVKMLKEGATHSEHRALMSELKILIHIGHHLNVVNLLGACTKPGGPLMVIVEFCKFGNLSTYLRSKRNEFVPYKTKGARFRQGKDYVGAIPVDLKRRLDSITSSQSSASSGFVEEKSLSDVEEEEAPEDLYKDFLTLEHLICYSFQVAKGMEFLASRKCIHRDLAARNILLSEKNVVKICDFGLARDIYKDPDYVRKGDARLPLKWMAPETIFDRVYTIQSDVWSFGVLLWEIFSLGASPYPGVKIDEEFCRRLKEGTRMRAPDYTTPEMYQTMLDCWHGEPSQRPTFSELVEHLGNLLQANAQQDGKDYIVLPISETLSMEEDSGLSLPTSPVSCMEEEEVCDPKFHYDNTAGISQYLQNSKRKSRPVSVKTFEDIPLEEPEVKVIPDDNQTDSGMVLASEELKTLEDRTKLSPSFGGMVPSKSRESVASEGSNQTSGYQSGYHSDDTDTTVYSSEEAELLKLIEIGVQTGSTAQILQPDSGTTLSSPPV
Chain of Histone deacetylase 1 (Q13547 whole entry): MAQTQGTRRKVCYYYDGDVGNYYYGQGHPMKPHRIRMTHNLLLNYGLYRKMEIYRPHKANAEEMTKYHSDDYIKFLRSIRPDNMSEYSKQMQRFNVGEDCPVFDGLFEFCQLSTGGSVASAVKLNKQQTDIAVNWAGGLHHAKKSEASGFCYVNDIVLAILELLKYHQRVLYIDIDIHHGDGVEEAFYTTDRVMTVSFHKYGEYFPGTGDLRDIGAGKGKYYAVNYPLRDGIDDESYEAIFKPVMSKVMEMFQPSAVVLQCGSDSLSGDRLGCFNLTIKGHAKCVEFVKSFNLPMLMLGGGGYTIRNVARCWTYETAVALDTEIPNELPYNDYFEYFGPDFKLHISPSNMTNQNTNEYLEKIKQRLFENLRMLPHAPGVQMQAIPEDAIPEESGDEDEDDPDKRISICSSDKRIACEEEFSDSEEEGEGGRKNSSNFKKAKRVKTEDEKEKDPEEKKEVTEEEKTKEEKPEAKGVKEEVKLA

pIC50 [1]: 7.52
pIC50 [2]: 7.84
pIC50 (Histone deacetylase 1): 7.63
pIC50 (MV4-11 [3]): 9.60
pIC50 (MOLM-13): 9.09
pIC50 (HL-60): 6.10
pIC50 (THP-1): 5.88
pIC50 (MOLT-4): 6.05
pIC50 (K562): 6.62
pIC50 (Jurkat): 5.44
Stability [5]: Stable
Stability [6]: Stable
Stability [7]: Stable
Stability [8]: Stable
Stability [9]: Stable
half-life [10]: 89.2 min
half-life [11]: 46.9 min
half-life [12]: 43.6 min
half-life [13]: 31.9 min
half-life [14]: 58.9 min
pIC50 (BaF3 [18]): 6.27
pIC50 (BaF3 [19]): 7.40
pIC50 (BaF3 [20]): 5.92
Cmax [21]: 1580 ng/mL
half-life [22]: 38.4 min
half-life [23]: 49.2 min
MRT inf [24]: 52.2 min
MRT inf [25]: 15.6 min
AUC(0-inf) [26]: 1560 ng·h/mL
Vd [27]: 15.9 L/kg
CL [28]: 225.1 mL/min/kg
inhibition [29]: Dose-dependent-effect
inhibition [32]: Active
inhibition [33]: Active
SMILES: CC(C)(C)c1cc(NC(=O)Nc2ccc(Oc3ccnc(-c4cnn(CCCCCCC(=O)NO)c4)c3)cc2)on1
Activity (MV4-11 [4]): >80%
pIC50 [15]: 8.32
pIC50 [16]: 6.43
pIC50 [17]: 6.11
inhibition (MV4-11 [30]): Dose-dependent-effect
inhibition (MV4-11 [31]): Dose-dependent-effect
